Consider two molecules from patent US20240041813A1, “VERY-LONG-CHAIN POLYUNSATURATED FATTY ACIDS, ELOVANOID HYDROXYLATED DERIVATIVES, AND METHODS OF USE” (priority 2020, published 2024).

Entries after “also recorded” stand apart in the source; their conditions may differ.

One assay deals with ACE-2 receptor. The assay can be described thus: ACE-2 protein abundance by Jess capillary western in human alveoli in culture. The class given is cell-based. The conditions noted are these: effect dependent on addition of IL-1b. The source says: The Simple Protein platform Jess allows running a protein mixture in a capillary system that also serves as a probing matrix for the antibodies. This platform obviates the need to transfer the size-separated proteins onto a membrane with the consequent loss of sample. The sample amount that can be run in Jess is several times smaller than that required for Western blots. Therefore, high throughput is facilitated in cell cultures. The antibodies to this protein have been validated in our laboratory.
c.1.b. Protein abundance using Jess technology. The Simple Protein platform Jess allows running a protein mixture in a capillary electrophoretic system as a probing matrix for the antibodies (we refer to western blot as “Jess WB” here). This platform obviates the need to transfer the size-separated proteins onto a membrane with a potential loss of sample. The sample size run in Jess is several times smaller than that for classical WB. (400 ng protein/capillary column vs. 10 or more μg for classical WB). The proteins we assess will include ACE2, Furin, ADAM17, DPP4, TMPRSS2, protein surfactant D, and Cathepsin L. In addition, senescence and SASP proteins will also be analyzed. […]
ACE2 Protein abundance using Jess technology. […] Soluble protein concentration was determined by BCA assay (Thermo Fisher Scientific, Cat. 23225) and 0.4 μg used/reaction. […]

Assay [1] has as its system receptor-binding domain (RBD) of the SARS-CoV-2 spike. The assay is classed as cell-based, human.
Assay [2] relates to human corneal epithelial cells (HCEC). In words: HCEC challenged with IFNγ: SASP secretome (β-Gal staining). The assay is classed as cell-based. To be noted: HCEC 24 h after IFN-γ challenge.
For assay [3], the system named is ACE2. The assay can be described thus: Rat cornea alkali burn: ACE2 abundance by Jess capillary-based Western Blot. The class given is in vivo. The conditions noted are these: rat cornea after alkali burn; eye drops 20 μl/eye, 3 times/day for 14 days; day 14. The text has this: Sprague-Dawley rats (8-week-old male) were obtained from Charles River Laboratories (Wilmington, MA, USA) and kept at the Animal Care of the Neuroscience Center of Excellence, Louisiana State University Health (LSUH; New Orleans, LA, USA). All animals were handled in compliance with the guidelines of the ARVO Statement for the Use of Animals in Ophthalmic and Vision Research, and the experimental protocol was approved by the Institutional Animal Care and Use Committee (IACUC) at LSUH.
(§1) The rats were anesthetized by intraperitoneal injection of Ketamine (50-100 mg/kg) plus xylazine (5-10 mg/kg). A 4 mm diameter filter paper soaked in 1 N NaOH was placed on the central cornea of the right eye for 45 seconds, and then the eye was thoroughly washed with […] of saline. After injury, the rats were randomly divided into five treatment groups: vehicle; lipoxin A4 (LXA4) from Cayman Chemical (Ann Arbor, MI, USA); R,R Resolvin D6 isomer (RvD6i), R,R neuroprotection D (NPD1), and elovanoid (ELV)-N32. All lipid solutions were prepared at the final concentration of […] using PBS with the minimal contamination of ethanol by evaporating the ethanol and immediately dissolve the lipids in PBS, then vortex well for 2 min. Topical administration (20 μl) was done 3×/day for 14 days. The experiments were double-blinded with the lipid mediators coded during the whole experiments. At the end of the study, when all data was collected, the code was opened.
Briefly, samples were lysed with RIPA buffer containing a protease inhibitor cocktail (Sigma, Cat. P8340). Cell debris was removed after 10 min centrifugation at 16,000×g. Protein concentration was determined by BCA assay (Thermo Fisher Scientific, Cat. 23225) and 1 μg used/reaction. Fluorescent Master Mix was mixed with 40 mM DTT, and the mixture was added to each sample to provide a denaturing and reducing environment. Samples were heated at 95° C./5 min, and 3 μL of each sample were loaded. The 12-230 kDa cartridge (Protein Simple—#SM-W004) was used. Primary antibodies were diluted in antibody diluent 2 buffer (Protein Simple, #042-203) while the working solution of secondary antibodies was provided by the company (Protein Simple, #042-206). Then, the filled plate was spin-down for 10 min at 1,000×g to remove bubbles and plate, and capillaries were loaded into the Jess machine. For data analysis, the area of spectra that matched the molecular weight of the target protein was used. To reduce the coefficient variant, we analyzed the GAPDH for each capillary. The ratio of the targeted protein to GAPDH was used for statistical comparisons. For visualization, the artificial lanes generated from spectra volume was used.
For orientation: A western blot detects proteins with antibodies after separation by electrophoresis.

For assay [4], the system named is ACE2. The assay can be described thus: Rat cornea alkali burn: corneal RNA-seq, Ace2 gene expression. The class given is in vivo. The conditions noted are these: rat cornea after alkali burn; eye drops 3 times/day for 14 days; RNA-seq day 14. The protocol: as §1
(§2) Injured corneas (n=5/condition) were harvested and homogenized with TRIzol (Thermo Fisher Scientific) on ice with a glass Dounce homogenizer. RNA sequencing was performed as described^14. Briefly, after mRNA extraction and determination of purity, 8 ng of total RNA was reverse transcribed, and total cDNAs were amplified using ISPCR primer, and the library was made with the Nextera XT DNA library preparation kit (Illumina, San Diego, CA, USA). The libraries were pooled with the same molarity and sequenced using the NextSeq 500/550 High Output Kit v2 (75 cycles, Illumina). After demultiplexing, RNA-seq data were aligned to the Rattus Norvegicus reference genome (.ensembl.org/pub/release-98/fasta/rattus_norvegicus/dna/) using the Subread package v2.0.1 alignment function39. The BAM files for sequencing data alignment were counted using featureCounts function of Subread tool^40 using the macOS Catalina. The raw count data were subjected to differential gene expression analysis using DESeq2 package for R^41 with the vehicle group as reference. The adjusted p-values were named as the false discover rate (FDR).

For assay [5], the system named is ACE2. The assay can be described thus: HCEC challenged with IFNγ: Ace2 gene expression. The class given is cell-based, human. To be noted: IFNγ 100 ng/ml. The source says:
(§3) All experiments with human corneal epithelial cells were approved by the Institutional Review Board of LSUHNO and conducted in accordance with NIH guidelines. HCEC were kept frozen in the laboratory at passage 2544. Cells were maintained in keratinocyte growth (KGM) medium containing the keratinocyte basal medium (KBM) (Lonza: CC-3101) supplemented with bovine pituitary extract (BPE), hEGF, Insulin, Hydrocortisone and Gentamicin Sulfate-Amphotericin (GA-1000) (Lonza, Cat. CC-4131). For all experiments, cells were seeded at 30,000 cells/cm2.
(§4) For screening the stimulation of receptor ACE2 by cytokines, the HCEC were cultured with KGM until 50-60% confluence. Then, changed to KBM containing IL-1β, -2, -6 and 8, IFN-α, -ε, and -γ or TNFα at 1, 10 or 100 ng/ml. The cells were harvested after 6 hours and analyze for the gene expression of Ace2. In other experiments, HCEC were stimulated with IFNγ, and thereafter, lipid mediators were added. For the Alexa 594-conjugated RBD binding, IFNγ was used as a cytokine trigger. At 12 hours after cytokine exposure and lipid mediator treatments, […] of labeled RBD was added to the medium. The evaluation of RBD binding was conducted 24 hours after.
Quantitative PCR was performed with the Biomark HD system (Fluidigm, San Francisco, CA, USA). […]

In assay [6] the test system is Alexa 594-RBD. The class given is in vivo. The conditions noted are these: rat cornea after alkali burn; 14 days treatment; Alexa 594-RBD 1 μg/eye, 3 times at day 15, examined a day later.
For another assay, the system named is Cdkn2a (p16INK4a). The assay can be described thus: HCEC challenged with IFNγ: Cdkn2a gene expression. The class given is cell-based, human. The conditions noted are these: IFNγ 100 ng/ml.
Excerpt: as §3, §4
Quantitative PCR was performed with the Biomark HD system (Fluidigm, San Francisco, CA, USA). Briefly, 200 ng of RNA was reverse-transcribed using iScript Reverse Transcription Supermix (Bio-Rad), and the cDNA was pre-amplified using the PreAmp Master Mix (PN 100-5580; Fluidigm). The cDNA was then subjected to Exonuclease I treatment and diluted 5 times in TE Buffer. The qPCR reaction mixture and primer reaction mixture were made and loaded into the Biomark 96.96 IFC™ (Integrated Fluidic Circuit). The enzyme reaction was mixed using Juno™ Controller (Fluidigm) and run using the cycling program of (i) 70° C. for 40 minutes followed by 60° C. for 30 seconds, (ii) hot start for 1 minute at 95° C., (iii) 30 cycles of denaturation at 96° C. for 5 seconds, and annealing at 60° C. for 20 seconds, and (iv) melting curves between 60° C. and 95° C. with 1° C. increments/3 seconds. The Ct value of target genes was normalized to the house-keeping genes Gapdh, Hprt1, and Tfrc before normalized to the vehicle group. Relative fold changes from the ΔΔCT calculation was used to make the graph.

For another assay, the system named is injured rat cornea. In words: Rat cornea alkali burn: corneal RNA-seq, cytokine storm, NFkB/inflammation, senescence, integrin and protease genes. The class given is in vivo. To be noted: rat cornea, RNA-seq 14 days after injury. The protocol: as §1, §2
In assay [7] the test system is Alexa 594-RBD. The assay can be described thus: HCEC challenged with IFNγ: Alexa 594-RBD binding (unbiased imaging, Imaris). The conditions noted are these: IFNγ 100 ng/ml and lipid mediators 200 nM for 12 h, images 24 h after RBD. The class given is cell-based, human. As for the experimental part: as §4
Twenty-four hours after Alexa 594-RBD was added to the HCEC, the cells were washed with PBS (3×/5 min) and fixed with 4% paraformaldehyde for 30 minutes at RT. The HCEC were washed 2× with PBS and stained with Hoechst 33342 Solution (ThermoFisher Scientific, Cat. 62249) for 30 minutes at RT. Next, the HCEC were washed 2× with PBS before imaging. For unbiased data collection, 7 designated areas were defined in each well (FIG. 63) and captured with an Olympus FV3000 confocal laser scanning microscopy under “Multi Area Time Lapse” (MATL) mode. All images were acquired with the same parameters and Z-section range, converted and inputted in the Imaris software version 9.5.1. The threshold for the control images was defined by the HCEC without Alexa 594-conjugated RBD of S protein and using it as a threshold filter for the Imaris batch image processing function. The sum of total intensity for each image was used to evaluate the binding efficiency.

For the molecule `CC/C=C\CC(O)\C=C/C=C/C=C/C(O)C/C=C\C/C=C\CCCCCCCCCCCCCCC(=O)O` [ELV-N34, (16Z,19Z,22R,23E,25E,27Z,29S,31Z)-22,29-dihydroxytetra-triaconta-16,19,23,25,27,31-hexaenoic acid], the “expression of the ACE-2 receptor (protein abundance, Jess)” value in the assay with ACE-2 receptor is listed as “downregulate”. In assay [1], the “RBD protein internalization (RBD located below the membrane line)” value is recorded as “decrease”.

On to `CC/C=C\C[C@@H](O)/C=C/C=C\C/C=C\C/C=C\C=C\[C@H](O)CCC(=O)O` [RvD6i], for which, in assay [2], the “senescence programming genes and SASP secretome activation (β-Gal)” value is given as “blocked; also recorded: suppressed”. Also, in the assay on ACE2 [3], the “ACE2 abundance (protein, normalized to GAPDH)” value is “decrease”. Moreover, the “Ace2 gene expression levels” value in the assay on ACE2 [4] was “decrease”. For the same molecule, the “IFNγ-triggered Ace2 activation” value in the assay with ACE2 [5] is given as “markedly attenuated; also recorded: suppressed”. Further, the “binding of Alexa 594-RBD to injured cornea” value in the assay on Alexa 594-RBD [6] is recorded as “decrease; also recorded: counteracted”. In addition, the Cdkn2a activation result in the assay with Cdkn2a (p16INK4a) is recorded as “decrease”. In addition, in the assay with injured rat cornea, the “51 injury-upregulated genes (cytokines, SASP, NFkB inflammatory)” value is given as “most are inhibited”; the “Il6 and Vegfa expression” value was “reduced”; the “integrin gene expression (Itga5 and Itgb 1)” value is on record as “significantly decreased; also recorded: decrease”; the “transcriptomic profile in PCA plot relative to control cornea” value is given as “nearest to the normal cornea”. For the same molecule, the “IFNγ-stimulated Alexa 594-RBD binding” value in the assay with Alexa 594-RBD [7] is listed as “attenuated”.
